# Results published in US20250345329A1, “HETEROARYL DERIVATIVE COMPOUND AND USES THEREOF” (VORONOI, INC., priority 2022, published 2025).
# Target: T1, human EGFR (d746-750/T790M/C797S) (Homo sapiens, UniProt P00533, C797S/DEL746-750/T790M)
# T1 construct: human EGFR (d746-750/T790M/C797S) (668-end, SignalChem); purchased SignalChem
# Assay: EGFR C797S enzyme inhibition activity (ADP-Glo kinase assay)
# Format: biochemical
# Details: purified enzyme 3 ng, ATP 5 μM, 25° C., 1 hour, luminescence; read-out: EGFR DTC Enzyme IC50
# Experimental: <Experimental Example 1> Evaluation of EGFR C797S Enzyme Inhibition Activity
# The compounds according to the present invention were reacted together with purified human EGFR (d746-750/T790M/C797S) (668-end, SignalChem) enzyme and a specific substrate and evaluated for enzyme inhibitory activity as described below. The reaction buffer consisted of 40 mM Tris-HCl pH 7.4, 20 mM MgCl2, 0.5 mg/ml BSA, and 50 μM DTT, and all reactions of the test substances were performed in reaction buffers. The compounds were serially diluted in 12 steps from a 10 mM DMSO stock, and the enzyme activity was measured at the final compound concentrations of 10, 3, 1, 0.3, 0.1, 0.03, 0.01, 0.003, 0.001, 0.0003, 0.0001, and 0 μM. In the assay, human EGFR (d746-750/T790M/C797S) (3 ng) enzyme was reacted with purified ATP (5 μM) and enzyme substrate (0.2 μg) at 25° C. for 1 hour, and the enzyme activity was determined using the in vitro ADP-Glo™ kinase assay (Promega). The enzyme activity inhibition was measured via luminescence by reacting the enzyme activity reaction solution, ADP-Glo reaction solution, and enzyme activity detection solution in a 2:2:1 ratio. Based on the luminescence of the enzyme activity of the solvent control group that was not treated with the compound, the degree of the enzyme activity inhibition depending on the treatment concentration of each compound was calculated, wherein the concentration of each compound that inhibited the enzyme activity by 50% was determined as the IC50 (nM) value, which was obtained using GraphPad Prism 8.4.3 (GraphPad software Inc., San Diego).
# T1 sequence (P00533 with tags, fused parts or gaps DEL746-750/T790M/C797S): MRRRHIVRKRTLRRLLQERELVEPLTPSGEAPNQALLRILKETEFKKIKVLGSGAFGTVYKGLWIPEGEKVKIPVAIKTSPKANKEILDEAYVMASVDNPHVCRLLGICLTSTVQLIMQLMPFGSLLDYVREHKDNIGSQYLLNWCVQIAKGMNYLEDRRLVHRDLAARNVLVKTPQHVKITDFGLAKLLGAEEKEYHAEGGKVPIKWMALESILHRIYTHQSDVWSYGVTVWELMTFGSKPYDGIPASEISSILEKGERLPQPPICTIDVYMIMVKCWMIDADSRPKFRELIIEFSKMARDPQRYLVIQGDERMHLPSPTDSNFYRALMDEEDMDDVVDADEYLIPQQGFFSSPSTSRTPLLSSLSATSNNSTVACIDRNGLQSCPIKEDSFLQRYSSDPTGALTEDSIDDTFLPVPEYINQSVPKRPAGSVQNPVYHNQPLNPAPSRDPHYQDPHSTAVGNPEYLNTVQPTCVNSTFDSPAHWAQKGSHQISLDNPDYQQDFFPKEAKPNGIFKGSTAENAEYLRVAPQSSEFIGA
row,IC50 [nM],Structure (SMILES)
1,< 50,"CC(C)Nc1cc(Nc2ccnc(-c3cnn(S(=O)(=O)C4CC4)c3)n2)ncc1C(=O)NC1CCN(S(C)(=O)=O)CC1 [Example 69, 6-((2-(1-(cyclopropylsulfonyl)-1H-pyrazol-4-yl)pyrimidin-4-yl)amino)-4-(isopropylamino)-N-(1-(methylsulfonyl)piper-idin-4-yl)nicotinamide]"
2,< 50,"CC(C)Nc1cc(Nc2ccnc(-c3cn[nH]c3)n2)ncc1C(=O)NC1CCNC1 (stereo not shown) [Example 67, 6-((2-(1H-pyrazol-4-yl)pyrimidin-4-yl)amino)-4-(isopropylamino)-N-(pyrrolidin-3-yl)nicotinamide]"
3,< 50,"CO[C@H]1CCN(c2nccc(Nc3cc(NC4CCOC4)c(C(=O)N4CC(CS(C)(=O)=O)C4)cn3)n2)C[C@H]1F (relative stereo) [Example 14, (6-((2-(cis-3-fluoro-4-methoxypiperidin-1-yl)pyrimidin-4-yl)amino)-4-((tetrahydrofuran-3-yl)amino)pyridin-3-yl)(3-((methylsulfonyl)meth-yl)azetidin-1-yl)methanone]"
4,< 50,"CO[C@H]1CCN(c2nccc(Nc3cc(NC(C)C)c(C(=O)N4CC(CS(C)(=O)=O)C4)cn3)n2)C[C@H]1F (relative stereo) [Example 2, (6-((2-(cis-3-fluoro-4-methoxypiperidin-1-yl)pyrimidin-4-yl)amino)-4-(isopropylamino)pyri-din-3-yl)(3-((methylsulfonyl)meth-yl)azetidin-1-yl)methanone]"
5,< 50,"CC(C)Nc1cc(Nc2ccnc(-c3cnn(S(=O)(=O)C4CC4)c3)n2)ncc1C(=O)NCCc1ccccc1 [Example 52, 6-((2-(1-(cyclopropylsulfonyl)-1H-pyrazol-4-yl)pyrimidin-4-yl)amino)-4-(isopropylamino)-N-phenethylnicotinamide]"
6,< 50,"CC(C)Nc1cc(Nc2ccnc(-c3cnn(S(=O)(=O)C4CC4)c3)n2)ncc1C(=O)NC[C@H]1CCCN1 [Example 77, (R)-6-((2-(1-(cyclopropylsulfonyl)-1H-pyrazol-4-yl)pyrimidin-4-yl)amino)-4-(isopropylamino)-N-(pyrrolidin-2-ylmethyl)nicotinamide]"
7,50 to 500,"CC(C)Nc1cc(Nc2ccnc(-c3cnn(S(=O)(=O)C4CC4)c3)n2)ncc1C(=O)NCCC(C)c1ccccc1 (stereo not shown) [Example 54, 6-((2-(1-(cyclopropylsulfonyl)-1H-pyrazol-4-yl)pyrimidin-4-yl)amino)-4-(isopropylamino)-N-(3-phenylbutyl)nicotina-mide]"
8,50 to 500,"C[C@H]1CCOc2c(cnn2C)-c2nccc(n2)Nc2cc(c(C(=O)Nc3cccc(C(F)(F)F)c3)cn2)N1 [Example 101, (S)-1^1,6-dimethyl-N-(3-(trifluoromethyl)phe-nyl)-1^1H-9-oxa-3,5-diaza-2(2,4)-pyrimidina-4(2,4)-pyridina-1(4,5)-pyrazolacyclo-nonaphane-4^5-carboxamide]"
9,< 50,"C[C@H]1CCOc2c(cnn2C)-c2nccc(n2)Nc2cc(c(C(=O)O)cn2)N1 [Example 117, (S)-1^1,6-dimethyl-1^1H-9-oxa-3,5-diaza-2(2,4)-pyrimidina-4(2,4)-pyridina-1(4,5)-pyrazolacyclo-nonaphane-4^5-carboxylic acid]"
10,< 50,"CC(C)Nc1cc(Nc2ccnc(-c3cnn(S(=O)(=O)C4CC4)c3)n2)ncc1NC(=O)Cc1ccc(C#N)cc1 [Example 85, 2-(4-cyanophenyl)-N-(6-((2-(1-(cyclopropylsulfonyl)-1H-pyrazol-4-yl)pyrimidin-4-yl)amino)-4-(isopropylamin)pyri-din-3-yl)acetamide]"
11,50 to 500,"CC(C)Nc1cc(Nc2ccnc(N3CCNC(=O)C3)n2)ncc1C(=O)N1CC(CS(C)(=O)=O)C1 [Example 45, 4-(4-((4-(isopropylamino)-5-(3-((methylsulfonyl)meth-yl)azetidine-1-carbonyl)pyridin-2-yl)amino)pyrimidin-2-yl)piperazin-2-one]"
12,50 to 500,"CC(C)Nc1cc(Nc2ccnc(-c3cnn(S(=O)(=O)C4CC4)c3)n2)ncc1C(=O)N(C)CCN(C)C [Example 26, 6-((2-(1-(cyclopropylsulfonyl)-1H-pyrazol-4-yl)pyrimidin-4-yl)amino)-N-(2-(dimethylamino)ethyl)-4-(isopropylamino)-N-methylnicotinamide]"
13,50 to 500,"CC(C)Nc1cc(Nc2ccnc(-c3cnn(S(=O)(=O)C4CC4)c3)n2)ncc1C(=O)N(C)CC#N [Example 28, N-(cyanomethyl)-6-((2-(1-(cyclopropylsulfonyl)-1H-pyrazol-4-yl)pyrimidin-4-yl)amino)-4-(isopropylamino)-N-methylnicotinamide]"
14,< 50,"CC(C)Nc1cc(Nc2ccnc(-c3cnn(CC4CC4)c3)n2)ncc1C(=O)N1CC(CS(C)(=O)=O)C1 [Example 43, (6-((2-(1-(cyclopropylmethyl)-1H-pyrazol-4-yl)pyrimidin-4-yl)amino)-4-(isopropylamino)pyri-din-3-yl)(3-((methylsulfonyl)meth-yl)azetidin-1-yl)methanone]"
15,50 to 500,"Cn1cc(Nc2cc(Nc3ccnc(-c4cnn(S(=O)(=O)C5CC5)c4)n3)ncc2C(=O)N2CC(CS(C)(=O)=O)C2)cn1 [Example 22, (6-((2-(1-(cyclopropylsulfonyl)-1H-pyrazol-4-yl)pyrimidin-4-yl)amino)-4-((1-methyl-1H-pyrazol-4-yl)amino)pyridin-3-yl)(3-((methylsulfonyl)meth-yl)azetidin-1-yl)methanone]"
16,50 to 500,"CC(C)Nc1cc(Nc2ccnc(N3CCN(S(C)(=O)=O)CC3)n2)ncc1C(=O)N1CC(CS(C)(=O)=O)C1 [Example 44, (4-(isopropylamino)-6-((2-(4-(methylsulfonyl)piper-azin-1-yl)pyrimidin-4-yl)amino)pyridin-3-yl)(3-((methylsulfonyl)meth-yl)azetidin-1-yl)methanone]"
17,< 50,"CNCCCNC(=O)c1cnc(Nc2ccnc(-c3cn[nH]c3)n2)cc1NC(C)C [Example 59, 6-((2-(1H-pyrazol-4-yl)pyrimidin-4-yl)amino)-4-(isopropylamino)-N-(3-(methylamino)propyl) nicotinamide]"
18,< 50,"CC(C)Nc1cc(Nc2ccnc(-c3cnn(S(=O)(=O)C4CC4)c3)n2)ncc1C(=O)Nc1cc(N2CCC(N3CCN(C)CC3)CC2)cc(S(C)(=O)=O)c1 [Example 75, 6-((2-(1-(cyclopropylsulfonyl)-1H-pyrazol-4-yl)pyrimidin-4-yl)amino)-4-(isopropylamino)-N-(3-(4-(4-methylpiperazin-1-yl)piperidin-1-yl)-5-(methyl-sulfonyl)phenyl) nicotinamide]"
19,< 50,"CNCCCNC(=O)c1cnc(Nc2ccnc(-c3cnn(S(=O)(=O)C4CC4)c3)n2)cc1NC(C)C [Example 60, 6-((2-(1-(cyclopropylsulfonyl)-1H-pyrazol-4-yl)pyrimidin-4-yl)amino)-4-(isopropoylamino)-N-(3-(methylamino)propyl) nicotinamide]"
20,< 50,"C[C@@H]1CCOc2c(cnn2C)-c2nccc(n2)Nc2cc(c(C(=O)NCC#N)cn2)N1 [Example 84, (R)-N-(cyanomethyl)-1^1,6-dimethyl-1^1H-9-oxa-3,5-diaza-2(2,4)-pyrimidina-4(2,4)-pyridina-1(4,5)-pyrazolacyclo-nonaphane-4^5-carboxamide]"
21,50 to 500,"CC(C)Nc1cc(Nc2ccnc(N3CCN(C)CC3)n2)ncc1C(=O)N1CC(CS(C)(=O)=O)C1 [Example 11, (4-(isopyropylamino)-4-((2-(4-methylpiperazin-1-yl)pyrimidin-4-yl)amino)pyridin-3-yl)(3-((methylsulfonyl)meth-yl)azetidin-1-yl)methanone]"
22,< 50,"CC(C)Nc1cc(Nc2ccnc(-c3cnn(S(=O)(=O)C4CC4)c3)n2)ncc1C(=O)N1CC(N(C)C)C1 [Example 37, (6-((2-(1-(cyclopropylsulfonyl)-1H-pyrazol-4-yl)pyrimidin-4-yl)amino)-4-(isopropylamino)pyri-din-3-yl)(3-(dimethylamino)azeti-din-1-yl)methanone]"
